{"source": "paper doi:10.1101/525329v1", "about": "“The large loop-8 insert in Saccharomyces cerevisiae kinesin-5 Cin8 is necessary and sufficient to promote noncanonical microtubule interactions” (biorxiv, 2019)", "assay_in_all_cases": "NADH-coupled steady-state ATPase assay", "key": {"Eg5-KL8": {"test_system": "T1, Eg5-KL8", "T1 construct": "gene KIF11; monomeric Eg5 motor domain with Kip1 loop-8 insert; bacterial expression, pET16b", "assay_type": "biochemical, Homo sapiens", "details": "high ionic strength (75 mM KCl, 88 mM IS), 10 μM paclitaxel-stabilized bovine microtubules, 2 mM MgCl2, pH 7.2, 298 K; kcat from microtubule-dependent fit; read-out: Km,ATP"}, "Cin8-EL8": {"test_system": "T2, Cin8-EL8", "T2 construct": "monomeric Cin8 motor domain with Eg5 loop-8 insert; bacterial expression, pET32b", "assay_type": "biochemical, Saccharomyces cerevisiae", "details": "low ionic strength (7.5 mM KCl, 21 mM IS), 5 μM paclitaxel-stabilized bovine microtubules, 2 mM MgCl2, pH 7.2, 298 K; kcat from microtubule-dependent fit; read-out: Km,ATP"}, "Eg5-CL8": {"test_system": "T3, Eg5-CL8", "T3 construct": "gene KIF11; monomeric Eg5 motor domain with 99-residue Cin8 loop-8 insert; bacterial expression, pET16b", "assay_type": "biochemical, Homo sapiens", "details": "low ionic strength (7.5 mM KCl, 21 mM IS), 2 μM paclitaxel-stabilized bovine microtubules, 2 mM MgCl2, pH 7.2, 298 K; kcat from microtubule-dependent fit at 1 mM ATP"}}}
{"smiles": "Nc1ncnc2c1ncn2[C@@H]1O[C@H](COP(=O)(O)OP(=O)(O)OP(=O)(O)O)[C@@H](O)[C@H]1O", "note": "[ATP]", "values": [{"measurement": "Km", "setting": "Eg5-KL8", "value": "16 ± 4", "unit": "µM"}, {"measurement": "Km", "setting": "Cin8-EL8", "value": "39 ± 7", "unit": "µM"}, {"measurement": "Km", "setting": "Eg5-CL8", "value": "40 ± 11", "unit": "µM"}]}
